In US20030040510A1, “Selective estrogen receptor modulators in combination with estrogens” (Endorecherche, Inc., priority 2000, published 2003):
“Also recorded” adds a separate entry of the source. Marks after values point to notes of the source that are not given here.

What was measured:
[1] = test system: OVX rats having established osteopenia; assay: Treatment of OVX rats having established osteopenia, 26 weeks (Example 5B): BMD, total body fat; type: in vivo, Sprague-Dawley rats; conditions: treatment started 10 weeks after OVX, 26 weeks daily
Description: Height to nine month-old female Sprague-Dawley rats (Crl:CD(SD)Br) (Charles River Laboratory, St-Constant, Canada) were used in this experiment. The animals were acclimatized to the environmental conditions (temperature: 22±3° C.; humidity: 50±20%; 12-h light-12-h dark cycles, lights on at 07:15 h) for at least 1 week prior to the ovariectomy. Animals were bilaterally ovariectomized (OVX) under isoflurane anesthesia. Twenty animals were kept intact as control. The animals were housed individually and were allowed free access to tap water and a pelleted certified rodent feed (Lab Diet 5002, Ralston Purina, St-Louis, Mo.). Experiments were conducted in an animal facility approved by the Canadian Council on Animal Care (CCAC) and the Association for Assessment and Accreditation of Laboratory Animal Care (AAALAC) in accordance with the CCAC Guide for Care and Use of Experimental Animals.
Treatments were initiated 10 weeks after the ovariectomy and were performed once daily during 26 weeks. Animals not receiving a test article were treated with the appropriate vehicle alone during the same period.
Prior to the OVX, prior to the first day treatment (10 weeks after OVX) and after 26 weeks of treatment, individual rats under Isoflurane anesthesia had their whole body skeleton, lumbar spine and right femur scanned using dual energy x-ray absorptiometry (DEXA; QDR 4500A, Hologic, Waltham, Mass.) and a Regional High Resolution Scan software. The bone mineral density (BMD) of the lumbar spine (vertebrae L2 to L4), femur and the total body composition (fat percentage) were determined.

human Ishikawa cells = assay: Alkaline phosphatase activity in human endometrial adenocarcinoma Ishikawa cells; type: cell-based; conditions: 5 days
Description: The human Ishikawa cell line derived from a well differentiated endometrial adenocarcinoma was kindly provided by Dr. Erlio Gurpide, The Mount Sinai Medical Center, New York, N.Y. The Ishikawa cells were routinely maintained in Eagle's Minimum Essential Medium (MEM) containing 5% (vol/vol) FBS (Fetal Bovine Serum) and supplemented with 100 U/ml penicillin, 100 μg/ml streptomycin, 0.1 mM non-essential amino acids solution. Cells were plated in Falcon T75 flasks at a density of 1.5×10^6 cells at 37° C.
Twenty four hours before the start of the experiment, the medium of near confluent Ishikawa cells was replaced by fresh estrogen-free basal medium (EFBM) consisting of a 1:1 (v:v) mixture of phenol red-free Ham's F-12 and Dulbecco's Modified Eagle's Medium (DMEM) supplemented with 100 U/mL penicillin, 100 μg/mL streptomycin, 2 mM glutamine, and 5% FBS treated twice with dextran-coated charcoal to remove endogenous steroids. Cells were then harvested by 0.1% pancreatin (Sigma) and 0.25 mM HEPES, resuspended in EFBM and plated in Falcon 96, well flat-bottomed microtiter plates at a density of 2.2×10^4 cells/well in a volume of 100 μl and allowed to adhere to the surface of the plates for 24 h. Thereafter, medium was replaced with fresh EFBM containing the indicated concentrations of compounds in a final volume of 200 μl. Cells were incubated for five days, with a medium change after 48 h.
At the end of the incubation period, microtiter plates were inverted and growth medium was decanted. The plates were rinsed with 200 μl by well of PBS (0.15M NaCl, 10 mM sodium phosphate, pH 7.4). PBS was then removed from the plates while carefully leaving some residual PBS, and the wash procedure was repeated once. The buffered saline was then decanted, and the inverted plates were blotted gently on a paper towel. Following replacement of the covers, the plates were placed at −80° C. for 15 min followed by thawing at room temperature for 10 min. […] Plates were monitored at 405 nm in an enzyme-linked immunosorbent assay plate reader (BIO-RAD, model 2550 EIA Reader).

endometrial epithelium = assay: Thickness of uterine (endometrial) epithelial cells in the mice of Example 8; type: in vivo, nude mice; conditions: for Endometrial epithelium thickness: 161 days
Text: The 17 groups included two control groups (OVX and OVX+Estrone), seven groups supplemented with an estrone implant and treated with an antiestrogen and eight other groups that received an antiestrogen alone. The estrone implants were then removed from the animals in the ovariectomized control group (OVX) and in groups that were to receive the antiestrogen alone. […] Tamoxifen was purchased from […], Israel) while toremifene citrate was purchased from Orion (Espoo, Finland). […] Animals in both control groups received 0.2 ml of the vehicle alone. The antiestrogen suspensions at the appropriate concentration were prepared each month, stored at 4° C. and used under constant agitation. Powder stock were hermetically stored at 4° C. […] After 161 days of treatment, the remaining animals were anesthetized with isoflurane and killed by exsanguination. […] The uteri were prepared to evaluate endometrial thickness by image analysis performed with Image Pro-Plus (Media Cybernetics, Maryland, USA). […] Hematoxylin- and eosin-stained sections of mice uteri were analysed. […] Mean epithelial cell height was measured in all animals of each group.

Solid state stability = type: physicochemical
Text: In administering either EM-800 or EM-1538, it is believed to result in the same active compound in vivo.

[2] = test system: human breast cancer ZR-75-1 xenografts; assay: Tamoxifen-stimulated growth of ZR-75-1 xenografts in nude mice with or without EM-652.HCl (FIG. 9); type: in vivo

Structure (SMILES): CC1=C(c2ccc(O)cc2)[C@H](c2ccc(OCCN3CCCCC3)cc2)Oc2cc(O)ccc21.Cl [EM-652.HCl, (S)-(+)-7-hydroxy-3-(4′-hydroxyphenyl)-4-methyl-2-(4″-(2′″-piperidinoethoxy)phenyl)-2H-1-benzopyran hydrochloride]
- Femoral BMD [1]: completely prevented the further decrease
- Lumbar spine BMD [1]: completely prevented the further decrease
- Total body fat [1]: prevented the 17% increase
- Maximal inhibition of 1 nM E2-induced stimulation of alkaline phosphatase (human Ishikawa cells; 1 nM E2): 98.97 ± 0.174 (18)
- IC50 (human Ishikawa cells; Homo sapiens, 120 h, 1 nM E2, read-out: Inhibition of 1 nM E2-induced stimulation of alkaline phosphatase IC50): 1.52 ± 0.22 nM
- Emax (human Ishikawa cells; Homo sapiens, 120 h, read-out: Maximal stimulation of alkaline phosphatase, % of 1 nM E2 stimulation): 1.88 ± 0.26%
- Inhibition of the stimulatory effect of estrone on epithelial height (endometrial epithelium; 50 μg daily oral + estrone): 70%
- Height of uterine epithelial cells, of the OVX control group value (endometrial epithelium; 200 μg daily, absence of estrone): 114%
- Endometrial epithelium thickness (endometrial epithelium; OVX + E1 + antiestrogen 50 μg daily): 25.06^b ± 0.07 μm
- Endometrial epithelium thickness (endometrial epithelium; OVX + antiestrogen 200 μg daily, no estrone): 20.79 ± 0.10 μm
- Solid state stability (Solid state stability): good solid state stability
- Effect on tumor growth in the absence of Tamoxifen ([2]; EM-652.HCl by itself, hydrochloride): has no effect on tumor growth; also recorded: did not exert any stimulatory effect
- Effect on the stimulatory effect of Tamoxifen on tumor growth ([2]; simultaneous treatment with Tamoxifen): completely blocked
